# Laboratory results taken from PubChem BioAssay AID2060603 (Molecular Pharmacology Branch, DTP, NCI, 2025).
# System: 422866-222-R5-J1-PDC spheroid viability
# Assay: Anticancer human tumor 422866-222-R5-J1-PDC patient-derived pancreatic adenocarcinoma cell line growth inhibition [CLK]
# Settings: spheroids with HUVEC and MSC; for IC50: curve of first compound; for viability, T/C: stronger effect = lower value
# Procedure, shortened: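 Multi-cell-type spheroids combined patient-derived tumor cells with HUVEC endothelial cells and human mesenchymal stem cells. Paired agents were dosed in half-log steps down from about clinical Cmax, or from 10 microM where Cmax was unknown.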
# [1] = second compound 0.0316 µM, first compound 0.0316 µM
# [2] = second compound 0.0316 µM, first compound 0.1 µM
# [3] = second compound 0.0316 µM, first compound 0.316 µM
# [4] = second compound 0.0316 µM, first compound 1 µM
# [5] = second compound 0.0316 µM, first compound 3.16 µM
# [6] = second compound 0.0316 µM, first compound 10 µM
# [7] = second compound 0.1 µM, first compound 0.0316 µM
# [8] = second compound 0.1 µM, first compound 0.1 µM
# [9] = second compound 0.1 µM, first compound 0.316 µM
# [10] = second compound 0.1 µM, first compound 1 µM
# [11] = second compound 0.1 µM, first compound 3.16 µM
# [12] = second compound 0.1 µM, first compound 10 µM
# [13] = second compound 0.316 µM, first compound 0.0316 µM
# [14] = second compound 0.316 µM, first compound 0.1 µM
# [15] = second compound 0.316 µM, first compound 0.316 µM
# [16] = second compound 0.316 µM, first compound 1 µM
# [17] = second compound 0.316 µM, first compound 3.16 µM
# [18] = second compound 0.316 µM, first compound 10 µM
# [19] = second compound 1 µM, first compound 0.0316 µM
# [20] = second compound 1 µM, first compound 0.1 µM
# [21] = second compound 1 µM, first compound 0.316 µM
# [22] = second compound 1 µM, first compound 1 µM
# [23] = second compound 1 µM, first compound 3.16 µM
# [24] = second compound 1 µM, first compound 10 µM
# [25] = second compound 3.16 µM, first compound 0.0316 µM
# [26] = second compound 3.16 µM, first compound 0.1 µM
# [27] = second compound 3.16 µM, first compound 0.316 µM
# [28] = second compound 3.16 µM, first compound 1 µM
# [29] = second compound 3.16 µM, first compound 3.16 µM
# [30] = second compound 3.16 µM, first compound 10 µM
# [31] = second compound 10 µM, first compound 0.0316 µM
# [32] = second compound 10 µM, first compound 0.1 µM
# [33] = second compound 10 µM, first compound 0.316 µM
# [34] = second compound 10 µM, first compound 1 µM
# [35] = second compound 10 µM, first compound 3.16 µM
# [36] = second compound 10 µM, first compound 10 µM
# 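Also: spheroids exposed to agents for seven days before readout.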
compound,measurement,setting,value
COc1cccc2c1C(=O)c1c(O)c3c(c(O)c1C2=O)CC(O)(C(=O)CO)CC3OC1CC(N)C(O)C(C)O1 (stereo not drawn) + CNC(=O)c1ccc(Nc2nc(OC3CCCC3)c3c(-c4ccc5nc(C)oc5c4)c[nH]c3n2)c(OC)c1,IC50,second compound 0.0316 µM,160 nM
same,IC50,second compound 0.1 µM,106 nM
same,IC50,second compound 0.316 µM,85.5 nM
same,IC50,second compound 1 µM,79.1 nM
same,IC50,second compound 3.16 µM,109 nM
same,IC50,second compound 10 µM,< 31.6 nM
same,"viability, T/C",[1],65%
same,"viability, T/C",[2],60.4%
same,"viability, T/C",[3],34.8%
same,"viability, T/C",[4],28.6%
same,"viability, T/C",[5],30.4%
same,"viability, T/C",[6],27.8%
same,"viability, T/C",[7],66.2%
same,"viability, T/C",[8],50.3%
same,"viability, T/C",[9],37.8%
same,"viability, T/C",[10],28.2%
same,"viability, T/C",[11],30.9%
same,"viability, T/C",[12],28.6%
same,"viability, T/C",[13],67.6%
same,"viability, T/C",[14],47.1%
same,"viability, T/C",[15],38.7%
same,"viability, T/C",[16],36.6%
same,"viability, T/C",[17],35.2%
same,"viability, T/C",[18],33.4%
same,"viability, T/C",[19],60.1%
same,"viability, T/C",[20],47.5%
same,"viability, T/C",[21],31.1%
same,"viability, T/C",[22],32.2%
same,"viability, T/C",[23],31.2%
same,"viability, T/C",[24],30.5%
same,"viability, T/C",[25],48.6%
same,"viability, T/C",[26],53.3%
same,"viability, T/C",[27],39%
same,"viability, T/C",[28],30.1%
same,"viability, T/C",[29],34.3%
same,"viability, T/C",[30],35.9%
same,"viability, T/C",[31],48.9%
same,"viability, T/C",[32],41.1%
same,"viability, T/C",[33],35.2%
same,"viability, T/C",[34],31.1%
same,"viability, T/C",[35],32%
same,"viability, T/C",[36],48.9%
C=CC(=O)N1CCN(c2nc(=O)n(-c3c(C)ccnc3C(C)C)c3nc(-c4c(O)cccc4F)c(F)cc23)C(C)C1 (stereo not drawn) + CN1CCN(c2cc(C(=O)Nc3cc4cc(-c5cnn(C)c5)ccc4cn3)ccn2)CC1,IC50,second compound 0.0316 µM,< 31.6 nM
same,IC50,second compound 0.1 µM,< 31.6 nM
same,IC50,second compound 0.316 µM,< 31.6 nM
same,IC50,second compound 1 µM,< 31.6 nM
same,IC50,second compound 3.16 µM,< 31.6 nM
same,IC50,second compound 10 µM,< 31.6 nM
same,"viability, T/C",[1],44.6%
same,"viability, T/C",[2],30.4%
same,"viability, T/C",[3],40.1%
same,"viability, T/C",[4],30.5%
same,"viability, T/C",[5],29%
same,"viability, T/C",[6],35.3%
same,"viability, T/C",[7],46.9%
same,"viability, T/C",[8],38.4%
same,"viability, T/C",[9],36.6%
same,"viability, T/C",[10],38.7%
same,"viability, T/C",[11],35.1%
same,"viability, T/C",[12],38.5%
same,"viability, T/C",[13],42.7%
same,"viability, T/C",[14],35.4%
same,"viability, T/C",[15],29.9%
same,"viability, T/C",[16],32.2%
same,"viability, T/C",[17],33.9%
same,"viability, T/C",[18],28.5%
same,"viability, T/C",[19],20.9%
same,"viability, T/C",[20],21.5%
same,"viability, T/C",[21],21.2%
same,"viability, T/C",[22],20.8%
same,"viability, T/C",[23],17.6%
same,"viability, T/C",[24],8.28%
same,"viability, T/C",[25],4.94%
same,"viability, T/C",[26],5.81%
same,"viability, T/C",[27],5.39%
same,"viability, T/C",[28],6.54%
same,"viability, T/C",[29],6.25%
same,"viability, T/C",[30],7.04%
same,"viability, T/C",[31],0.98%
same,"viability, T/C",[32],0.81%
same,"viability, T/C",[33],0.76%
same,"viability, T/C",[34],0.79%
same,"viability, T/C",[35],0.84%
same,"viability, T/C",[36],2.58%
CC(Nc1ccc2c(c1)OCCn1cc(N3C(=O)OCC3C(F)F)nc1-2)C(N)=O (stereo not drawn) + CN1CCN(c2cc(C(=O)Nc3cc4cc(-c5cnn(C)c5)ccc4cn3)ccn2)CC1,IC50,second compound 0.0316 µM,265 nM
same,IC50,second compound 0.1 µM,389 nM
same,IC50,second compound 0.316 µM,307 nM
same,IC50,second compound 1 µM,< 31.6 nM
same,IC50,second compound 3.16 µM,< 31.6 nM
same,IC50,second compound 10 µM,< 31.6 nM
same,"viability, T/C",[1],81.1%
same,"viability, T/C",[2],78.1%
same,"viability, T/C",[3],44.5%
same,"viability, T/C",[4],37.3%
same,"viability, T/C",[5],34%
same,"viability, T/C",[6],27%
same,"viability, T/C",[7],103%
same,"viability, T/C",[8],68.3%
same,"viability, T/C",[9],55.3%
same,"viability, T/C",[10],40.5%
same,"viability, T/C",[11],33.4%
same,"viability, T/C",[12],31.8%
same,"viability, T/C",[13],88.7%
same,"viability, T/C",[14],63.1%
same,"viability, T/C",[15],50%
same,"viability, T/C",[16],42.6%
same,"viability, T/C",[17],36.5%
same,"viability, T/C",[18],34.3%
same,"viability, T/C",[19],27.5%
same,"viability, T/C",[20],29.1%
same,"viability, T/C",[21],25.9%
same,"viability, T/C",[22],22.4%
same,"viability, T/C",[23],21.3%
same,"viability, T/C",[24],18.6%
same,"viability, T/C",[25],9.59%
same,"viability, T/C",[26],11%
same,"viability, T/C",[27],11.1%
same,"viability, T/C",[28],10.5%
same,"viability, T/C",[29],13.8%
same,"viability, T/C",[30],12.3%
same,"viability, T/C",[31],2.29%
same,"viability, T/C",[32],1.76%
same,"viability, T/C",[33],2.37%
same,"viability, T/C",[34],1.83%
same,"viability, T/C",[35],3.35%
same,"viability, T/C",[36],2.02%
CCCS(=O)(=O)Nc1ccc(F)c(C(=O)c2c[nH]c3ncc(-c4ccc(Cl)cc4)cc23)c1F + CN1CCN(c2cc(C(=O)Nc3cc4cc(-c5cnn(C)c5)ccc4cn3)ccn2)CC1,IC50,second compound 0.0316 µM,> 10000 nM
same,IC50,second compound 0.1 µM,> 10000 nM
same,IC50,second compound 0.316 µM,> 10000 nM
same,IC50,second compound 1 µM,< 31.6 nM
same,IC50,second compound 3.16 µM,< 31.6 nM
same,IC50,second compound 10 µM,< 31.6 nM
same,"viability, T/C",[1],111%
same,"viability, T/C",[2],113%
same,"viability, T/C",[3],136%
same,"viability, T/C",[4],161%
same,"viability, T/C",[5],179%
same,"viability, T/C",[6],150%
same,"viability, T/C",[7],108%
same,"viability, T/C",[8],124%
same,"viability, T/C",[9],137%
same,"viability, T/C",[10],134%
same,"viability, T/C",[11],168%
same,"viability, T/C",[12],138%
same,"viability, T/C",[13],95.9%
same,"viability, T/C",[14],102%
same,"viability, T/C",[15],98%
same,"viability, T/C",[16],109%
same,"viability, T/C",[17],133%
same,"viability, T/C",[18],99.5%
same,"viability, T/C",[19],31.4%
same,"viability, T/C",[20],30.9%
same,"viability, T/C",[21],32%
same,"viability, T/C",[22],27.8%
same,"viability, T/C",[23],31.4%
same,"viability, T/C",[24],23.5%
same,"viability, T/C",[25],8.19%
same,"viability, T/C",[26],9.62%
same,"viability, T/C",[27],11.2%
same,"viability, T/C",[28],12.2%
same,"viability, T/C",[29],16.5%
same,"viability, T/C",[30],16.1%
same,"viability, T/C",[31],1.72%
same,"viability, T/C",[32],2.24%
same,"viability, T/C",[33],2.24%
same,"viability, T/C",[34],2.75%
same,"viability, T/C",[35],2.94%
same,"viability, T/C",[36],0.92%
